Measurements taken from patent publication US10004732B2 (Novartis AG, priority 2014, dated 2018).
Read-outs that look alike come from different tables or passages of the source.

What was measured:
[1] = Microsomal clearance assay (M)
Protocol: The experiments were performed in 96-well glass plates at 37° C. on an automated Tecan EVO platform. Test compounds at a concentration of 10 mM in pure DMSO were diluted 1:1000 in water to 10 μM. […] Reactions were initiated by the addition of 150 μL of a cofactor solution containing 2 mM NADPH.

PI 3-kinase alpha = PI 3-kinase alpha (Homo sapiens, UniProt P42336); experiment: Kinase Glo Luminescent Kinase Assay (Kglo), assay A; assay type: biochemical; conditions: read-out: Assay A PI3Kα IC50
Protocol: Kinase Glo Luminescent Kinase Assay (Kglo) for Pb 3-Kinase Alpha (A), Pb 3-Kinase Beta (B), Vps34 (C), Pb 4-Kinase Beta (D)
The Kinase Glo Luminescent Kinase Assay (Promega, Madison/Wis., USA) is a homogeneous HTS method of measuring kinase activity by quantifying the amount of ATP remaining in solution following a kinase reaction.
L-α-phosphatidylinositol (PI), provided as 10 mg/ml solution in methanol, was transferred into a glass tube and dried under a nitrogen beam. It was then resuspended in 3% OctylGlucoside (1-0-n-octyl-beta-D-glucopyranoside) by vortexing and stored at 4° C. 5 μL of a mix of PI/OctylGlucoside with the PI 3-kinase alpha and PI 3-kinase beta subtypes, or Vps34 or PI 4-kinase beta were added. Kinase reactions were started by the addition of 5 μl of an ATP-mix containing in a final volume 10 μL 10 mM TRIS-HCl pH 7.5, 3 mM MgCl2, 50 mM NaCl, 0.05% CHAPS, 1 mM DTT and 1 μM ATP at room temperature.
All fits were performed with the program XLfit4 (ID Business Solutions, Guildford, UK).

PI 3-kinase beta = PI 3-kinase beta (Homo sapiens, UniProt P42338); experiment: Kinase Glo Luminescent Kinase Assay (Kglo), assay B; assay type: biochemical; conditions: read-out: Assay B PI3Kβ IC50
Vps34 = Vps34 (Homo sapiens, UniProt Q8NEB9); experiment: Kinase Glo Luminescent Kinase Assay (Kglo), assay C; assay type: biochemical; conditions: read-out: Assay C VPS34 IC50
PI 4-kinase beta = PI 4-kinase beta (Homo sapiens, UniProt Q9UBF8); experiment: Kinase Glo Luminescent Kinase Assay (Kglo), assay D; assay type: biochemical; conditions: read-out: Assay D PI4Kβ IC50
PI 3-kinase gamma = PI 3-kinase gamma (Homo sapiens, UniProt P48736); experiment: TR-FRET Adapta assay, assay E; assay type: biochemical; conditions: read-out: Assay E PI3Kγ IC50
Protocol: TR-FRET Adapta Assay for PI 3-Kinase Gamma (E), PI 3-Kinase Delta (F)
The TR-FRET Adapta™ Universal Kinase Assay Kit was purchased from Invitrogen Corporation (Carlsbad/CA, USA) (Cat. No. PV5099).
PIK3CD substrate phosphatidylinositol (PI) was obtained from Invitrogen (vesicules consisting of 2 mM phosphatidylinositol (PI) in 50 mM HEPES pH7.5; Cat. No. PV5371). PIK3CG substrate phosphatidylinositol-4,5-bisphosphate (PIP(4,5)2 was obtained from Invitrogen (PIP2:PS large unilamellar vesicules consisting of 1 mM PIP2: 19 mM PS in 50 mM HEPES pH7.5, 3 mM MgCl2, 1 mM EGTA; Cat. No. PV5100).
Time-Resolved Fluorescence Resonance Energy Transfer (TR-FRET) is a technology based on energy transfer between two adjacent dyes, from an excited electron in one dye (the donor) to an electron of an adjacent dye (the acceptor) through resonance, then released as a photon. This energy transfer is detected by an increase in the fluorescence emission of the acceptor, and a decrease in the fluorescence emission of the donor. TR-FRET assays for protein kinases use a long-lifetime lanthanide Terbium or Europium chelates as the donor species which overcome interference from compound autofluorescence or light scatter from precipitated compounds, by introducing a delay after excitation by a flashlamp excitation source. Results are often expressed as a ratio of the intensities of the acceptor and donor fluorophores. The ratiometric nature of such a value corrects for differences in assay volumes between wells, as well as corrects for quenching effects due to colored compounds. The Adapta™ assay can be divided into two phases: a kinase reaction phase and an ADP detection phase. In the kinase reaction phase, all kinase reaction components are added to the well and the reaction is allowed to incubate for a set period of time specific for each kinase. […] In the presence of an inhibitor, the amount of ADP formed by the kinase reaction is reduced, and the resulting intact antibody-tracer interaction maintains a high TR-FRET signal.
50 nL of compound dilutions were dispensed onto white 384-well small volume polystyrene plate. Then 5 μL of either PI 3-kinase gamma or PI 3-kinase delta and lipid substrate (PI or PIP2:PS) followed by 5 μL of ATP (final assay volume 10 μL) are incubated at RT. The standard reaction buffer for the Adapta™ TR-FRET assay contained 10 mM Tris-HCl pH 7.5, 3 mM MgCl2, 50 mM NaCl, 1 mM DTT, 0.05% CHAPS 3-[(3-cholamidopropyl)dimethylammonio]-1-propanesulfonate).
Data are analyzed using Excel fit software or Graphpad Prism. IC50 values were derived by fitting a sigmoidal dose-response curve to a plot of assay readout over inhibitor concentration. All fits were performed with the program XLfit4 (ID Business Solutions, Guildford, UK). […] All fits were performed with the program XLfit4 (ID Business Solutions, Guildford, UK).

mTOR = mTOR (Homo sapiens, UniProt P42345); experiment: Lanthascreen kinase binding assay, assay G; conditions: read-out: Assay G mTOR IC50
Protocol: Lanthascreen™ Kinase Binding Assay for mTOR (G)
Binding of an inhibitor to the kinase competes for binding with the tracer, resulting in a loss of FRET.
50 nL of compound dilutions were dispensed onto white 384-well small volume polystyrene plate.

PI 3-kinase delta = PI 3-kinase delta (Homo sapiens, UniProt O00329); experiment: TR-FRET Adapta assay, assay F
[2] = intrinsic clearance in rat liver microsomes
[3] = rat liver microsomes, intrinsic clearance

Sequence of Vps34 (Q8NEB9 whole entry, species assumed): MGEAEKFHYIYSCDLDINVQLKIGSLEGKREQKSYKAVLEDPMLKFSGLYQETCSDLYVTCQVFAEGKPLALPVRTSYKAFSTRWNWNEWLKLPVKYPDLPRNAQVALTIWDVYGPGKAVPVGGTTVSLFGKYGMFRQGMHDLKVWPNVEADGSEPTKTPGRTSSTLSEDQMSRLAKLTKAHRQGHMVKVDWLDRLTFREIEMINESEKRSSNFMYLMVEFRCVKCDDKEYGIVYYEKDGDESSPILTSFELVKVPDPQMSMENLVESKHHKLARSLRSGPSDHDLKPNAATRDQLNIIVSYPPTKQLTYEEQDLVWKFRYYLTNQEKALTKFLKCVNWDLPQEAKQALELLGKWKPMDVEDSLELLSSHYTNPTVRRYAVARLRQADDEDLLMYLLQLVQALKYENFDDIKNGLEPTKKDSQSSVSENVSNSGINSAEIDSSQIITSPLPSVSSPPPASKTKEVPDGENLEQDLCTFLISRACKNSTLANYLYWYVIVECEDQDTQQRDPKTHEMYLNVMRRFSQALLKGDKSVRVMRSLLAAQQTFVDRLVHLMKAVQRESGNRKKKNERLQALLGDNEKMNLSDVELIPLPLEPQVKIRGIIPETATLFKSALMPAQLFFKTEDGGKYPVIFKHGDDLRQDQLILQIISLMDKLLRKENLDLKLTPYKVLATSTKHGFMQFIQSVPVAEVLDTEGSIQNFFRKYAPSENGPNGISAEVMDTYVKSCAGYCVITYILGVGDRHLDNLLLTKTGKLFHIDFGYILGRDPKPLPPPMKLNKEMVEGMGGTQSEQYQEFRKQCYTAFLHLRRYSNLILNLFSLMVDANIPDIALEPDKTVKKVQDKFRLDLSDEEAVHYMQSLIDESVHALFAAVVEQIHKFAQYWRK
Sequence of PI 3-kinase alpha (P42336 whole entry): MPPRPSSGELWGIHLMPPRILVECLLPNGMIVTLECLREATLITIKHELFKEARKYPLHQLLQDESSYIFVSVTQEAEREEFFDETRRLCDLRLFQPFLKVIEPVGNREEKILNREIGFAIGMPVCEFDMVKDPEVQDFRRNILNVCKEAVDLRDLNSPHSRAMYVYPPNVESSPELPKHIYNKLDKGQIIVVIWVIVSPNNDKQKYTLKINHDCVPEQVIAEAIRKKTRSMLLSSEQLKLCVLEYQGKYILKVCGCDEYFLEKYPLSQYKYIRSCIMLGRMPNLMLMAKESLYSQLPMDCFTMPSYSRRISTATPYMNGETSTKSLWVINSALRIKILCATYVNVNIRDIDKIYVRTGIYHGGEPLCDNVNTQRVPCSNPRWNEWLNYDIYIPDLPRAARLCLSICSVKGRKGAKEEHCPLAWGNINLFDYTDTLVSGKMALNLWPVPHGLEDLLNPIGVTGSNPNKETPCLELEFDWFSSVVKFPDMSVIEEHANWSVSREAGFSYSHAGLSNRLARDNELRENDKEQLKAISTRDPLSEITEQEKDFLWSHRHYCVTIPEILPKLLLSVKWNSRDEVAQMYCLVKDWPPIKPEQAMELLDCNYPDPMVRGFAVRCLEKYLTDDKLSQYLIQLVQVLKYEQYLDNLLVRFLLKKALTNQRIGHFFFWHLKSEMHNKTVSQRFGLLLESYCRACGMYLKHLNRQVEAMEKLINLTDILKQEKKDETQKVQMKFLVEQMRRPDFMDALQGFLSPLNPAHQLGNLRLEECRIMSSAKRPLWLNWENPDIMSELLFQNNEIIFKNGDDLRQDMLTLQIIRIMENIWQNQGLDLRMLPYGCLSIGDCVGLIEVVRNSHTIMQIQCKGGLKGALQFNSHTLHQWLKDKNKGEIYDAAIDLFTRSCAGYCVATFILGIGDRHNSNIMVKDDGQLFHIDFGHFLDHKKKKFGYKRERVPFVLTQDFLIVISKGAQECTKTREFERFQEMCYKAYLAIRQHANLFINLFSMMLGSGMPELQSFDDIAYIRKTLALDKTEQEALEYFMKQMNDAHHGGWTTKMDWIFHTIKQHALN
Sequence of PI 3-kinase delta (O00329 whole entry): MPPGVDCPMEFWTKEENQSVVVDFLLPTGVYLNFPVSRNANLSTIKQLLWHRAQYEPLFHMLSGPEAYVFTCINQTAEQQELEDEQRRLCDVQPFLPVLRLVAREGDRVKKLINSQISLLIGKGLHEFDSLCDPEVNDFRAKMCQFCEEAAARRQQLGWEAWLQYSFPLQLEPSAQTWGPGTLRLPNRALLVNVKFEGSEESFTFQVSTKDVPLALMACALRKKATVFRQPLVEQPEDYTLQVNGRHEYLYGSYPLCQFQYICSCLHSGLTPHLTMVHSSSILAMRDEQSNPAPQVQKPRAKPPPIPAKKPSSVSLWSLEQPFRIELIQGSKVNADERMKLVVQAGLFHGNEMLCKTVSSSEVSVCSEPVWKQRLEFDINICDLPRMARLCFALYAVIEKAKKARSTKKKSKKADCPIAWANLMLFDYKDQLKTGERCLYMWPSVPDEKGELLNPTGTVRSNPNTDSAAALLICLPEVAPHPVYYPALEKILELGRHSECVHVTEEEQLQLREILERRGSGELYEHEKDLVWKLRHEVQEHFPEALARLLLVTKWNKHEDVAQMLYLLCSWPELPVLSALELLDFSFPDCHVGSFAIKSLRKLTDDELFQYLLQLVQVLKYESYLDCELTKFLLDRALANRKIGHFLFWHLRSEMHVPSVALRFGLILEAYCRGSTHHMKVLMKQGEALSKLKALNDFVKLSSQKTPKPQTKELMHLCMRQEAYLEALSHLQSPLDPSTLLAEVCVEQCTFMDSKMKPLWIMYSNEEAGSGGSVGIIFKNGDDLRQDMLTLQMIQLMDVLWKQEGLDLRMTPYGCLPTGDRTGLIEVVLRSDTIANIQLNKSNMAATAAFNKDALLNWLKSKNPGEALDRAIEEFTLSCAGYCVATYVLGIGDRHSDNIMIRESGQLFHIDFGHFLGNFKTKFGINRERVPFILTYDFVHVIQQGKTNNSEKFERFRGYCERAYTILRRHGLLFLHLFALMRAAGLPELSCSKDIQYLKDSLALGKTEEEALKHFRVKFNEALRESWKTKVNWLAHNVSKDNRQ
Sequence of PI 3-kinase delta (P27986 461-568 partner): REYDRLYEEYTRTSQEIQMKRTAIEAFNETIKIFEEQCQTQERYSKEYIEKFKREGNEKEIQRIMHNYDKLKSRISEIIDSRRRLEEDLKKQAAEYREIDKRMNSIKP
Sequence of PI 3-kinase beta (P42338 whole entry): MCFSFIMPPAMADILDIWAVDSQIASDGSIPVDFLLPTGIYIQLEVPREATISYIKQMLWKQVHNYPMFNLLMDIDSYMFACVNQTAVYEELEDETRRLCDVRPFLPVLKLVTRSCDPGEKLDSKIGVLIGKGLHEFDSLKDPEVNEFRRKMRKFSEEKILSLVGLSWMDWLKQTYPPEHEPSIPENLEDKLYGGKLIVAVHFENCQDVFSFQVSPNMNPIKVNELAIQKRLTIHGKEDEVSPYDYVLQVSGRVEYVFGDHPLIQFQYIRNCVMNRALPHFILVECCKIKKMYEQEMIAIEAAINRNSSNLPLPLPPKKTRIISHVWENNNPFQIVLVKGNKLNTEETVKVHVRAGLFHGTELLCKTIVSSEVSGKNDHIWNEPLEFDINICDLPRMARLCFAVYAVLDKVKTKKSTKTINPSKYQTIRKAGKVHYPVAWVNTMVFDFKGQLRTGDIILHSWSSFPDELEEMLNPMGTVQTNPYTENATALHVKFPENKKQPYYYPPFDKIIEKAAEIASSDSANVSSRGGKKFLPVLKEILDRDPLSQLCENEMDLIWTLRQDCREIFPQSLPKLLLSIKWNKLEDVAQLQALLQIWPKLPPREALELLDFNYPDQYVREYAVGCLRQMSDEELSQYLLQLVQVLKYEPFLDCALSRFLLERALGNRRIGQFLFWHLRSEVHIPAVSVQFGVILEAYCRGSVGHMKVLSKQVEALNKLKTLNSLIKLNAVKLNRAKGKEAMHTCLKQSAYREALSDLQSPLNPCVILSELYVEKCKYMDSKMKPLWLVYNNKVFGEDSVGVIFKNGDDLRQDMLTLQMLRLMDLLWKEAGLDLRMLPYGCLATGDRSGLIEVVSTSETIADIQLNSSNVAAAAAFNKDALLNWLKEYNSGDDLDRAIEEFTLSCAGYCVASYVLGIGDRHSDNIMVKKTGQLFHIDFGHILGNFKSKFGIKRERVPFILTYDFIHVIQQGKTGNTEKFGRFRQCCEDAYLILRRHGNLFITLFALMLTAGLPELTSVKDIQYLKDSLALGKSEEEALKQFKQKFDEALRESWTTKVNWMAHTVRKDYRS
Sequence of PI 3-kinase beta (P27986 461-568 partner): as the sequence (P27986 461-568 partner) above
Sequence of PI 4-kinase beta (Q9UBF8 whole entry): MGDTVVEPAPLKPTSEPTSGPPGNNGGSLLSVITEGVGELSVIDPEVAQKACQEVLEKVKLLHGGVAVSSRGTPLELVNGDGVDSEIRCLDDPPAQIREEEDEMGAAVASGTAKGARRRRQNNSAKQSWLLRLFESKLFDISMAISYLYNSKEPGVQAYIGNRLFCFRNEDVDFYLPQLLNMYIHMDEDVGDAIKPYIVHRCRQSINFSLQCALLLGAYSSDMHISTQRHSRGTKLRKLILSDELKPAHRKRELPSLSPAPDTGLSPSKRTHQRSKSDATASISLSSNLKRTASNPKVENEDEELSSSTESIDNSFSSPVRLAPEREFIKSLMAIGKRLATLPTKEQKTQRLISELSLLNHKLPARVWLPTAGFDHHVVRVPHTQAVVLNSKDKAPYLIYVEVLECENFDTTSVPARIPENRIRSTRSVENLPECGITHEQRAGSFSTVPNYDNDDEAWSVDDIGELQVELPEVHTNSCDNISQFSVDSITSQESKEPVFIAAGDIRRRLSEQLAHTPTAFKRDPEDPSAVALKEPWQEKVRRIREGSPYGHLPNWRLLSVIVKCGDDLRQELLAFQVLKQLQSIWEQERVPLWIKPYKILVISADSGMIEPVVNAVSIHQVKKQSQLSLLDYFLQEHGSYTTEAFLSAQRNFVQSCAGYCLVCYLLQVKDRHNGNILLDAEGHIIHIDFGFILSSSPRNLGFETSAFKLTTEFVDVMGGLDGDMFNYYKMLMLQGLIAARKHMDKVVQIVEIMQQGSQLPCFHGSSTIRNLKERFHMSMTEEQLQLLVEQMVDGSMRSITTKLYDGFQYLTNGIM

SMILES	Assay M RLM CI(int) [1, 3] [µL/min/mg]	IC50 (PI 3-kinase alpha) [nM]	IC50 (PI 3-kinase beta) [nM]	IC50 (Vps34) [nM]	IC50 (PI 4-kinase beta) [nM]	IC50 (PI 3-kinase gamma) [nM]	IC50 (mTOR) [nM]	IC50 (PI 3-kinase delta; read-out: Assay F PI3Kδ IC50) [nM]	IC50 (PI 3-kinase delta) [nM]	Assay M RLM CI(int) [1, 2] [µL/min/mg]
Cc1ncc(-c2nc(-c3cc(S(=O)(=O)N[C@@H]4CCOC4)ccc3C)cnc2N)s1 [Example 45.7a, (R)-3-(5-Amino-6-(2-methylthiazol-5-yl)pyrazin-2-yl)-4-methyl-N-(tetrahydrofuran-3-yl)benzenesulfonamide or (5)-3-(5-Amino-6-(2-methylthiazol-5-yl)pyrazin-2-yl)-4-methyl-N-(tetrahydrofuran-3-yl)benzenesulfonamide]										151
Cc1nc(N)ncc1-c1ccc(Cl)c(S(=O)(=O)NCCO)c1 [(xii), reference compound]	9									
Cc1ccc(S(=O)(=O)N2CCOCC2)cc1-c1cnc(N)c(C(=O)c2cccnc2)c1 [(i), reference compound]	47									
CNC(=O)c1nc(-c2ccc(Cl)c(S(=O)(=O)Nc3cccc(F)c3C)c2)cnc1N [(xi), reference compound]	271									
Cc1ccc(S(=O)(=O)N2CCOCC2)cc1-c1cnc(N)c(C(=O)c2cccnc2)n1 [(ix), reference compound]	267									
CC(C)(C)c1ccc(C(=O)c2cc(-c3cccc(S(=O)(=O)NC4CC4)c3)cnc2N)cc1 [(iii), reference compound]	219									
CN1CCN(S(=O)(=O)c2cccc(-c3cnc(N)c(C(=O)c4cccnc4)c3)c2)CC1 [(ii), reference compound]	233									
COCCNS(=O)(=O)c1cccc(-c2cnc(N)c(C(=O)c3cccnc3)n2)c1 [(iv), reference compound]	465									
COCCNS(=O)(=O)c1cc(-c2cnc(N)c(C(=O)c3cccnc3)n2)c(F)cc1F [(vii), reference compound]	283									
COCCNS(=O)(=O)c1cc(-c2cnc(N)c(C(=O)c3cccnc3)n2)ccc1Cl [(vi), reference compound]	630									
Nc1ncc(-c2ccc(Cl)c(S(=O)(=O)N[C@H]3CC[C@H](O)CC3)c2)nc1C(=O)c1cccnc1 [(v), reference compound]	173									
Cc1ncc(-c2nc(-c3cc(S(=O)(=O)N[C@@H]4CCOC4)ccc3C)cnc2N)s1 [Example 45.7b, (R)-3-(5-Amino-6-(2-methylthiazol-5-yl)pyrazin-2-yl)-4-methyl-N-(tetrahydrofuran-3-yl)benzenesulfonamide or (5)-3-(5-Amino-6-(2-methylthiazol-5-yl)pyrazin-2-yl)-4-methyl-N-(tetrahydrofuran-3-yl)benzenesulfonamide]										135
Cc1ccc(S(=O)(=O)NCCC(C)(C)O)cc1-c1cnc(N)c(-c2cncnc2)n1 [Example 119.20]		1480	> 9100	> 9100	> 9100	508	4820	2080		

The next lines start with results.

Assay M RLM CI(int) [1, 3] [µL/min/mg]	IC50 (PI 3-kinase alpha) [nM]	IC50 (PI 3-kinase beta) [nM]	IC50 (Vps34) [nM]	IC50 (PI 4-kinase beta) [nM]	IC50 (PI 3-kinase gamma) [nM]	IC50 (mTOR) [nM]	IC50 (PI 3-kinase delta; read-out: Assay F PI3Kδ IC50) [nM]	IC50 (PI 3-kinase delta) [nM]	SMILES	Assay M RLM CI(int) [1, 2] [µL/min/mg]
	1900	5300	> 10000	7700	130	> 10000	1600		Cc1ccc(S(=O)(=O)NC2CCOC2=O)cc1-c1cnc(N)c(-n2cncn2)n1 (stereo not shown) [Example 127.30]	
	1900	> 9100	> 9100	> 9100	240	> 9100	2100		COC(C)(C)CNS(=O)(=O)c1ccc(C)c(-c2cnc(N)c(-c3ccnc(C)c3)n2)c1 [Example 129.15, 3-(5-amino-6-(2-methylpyridin-4-yl)pyrazin-2-yl)-N-(2-methoxy-2-methylpropyl)-4-methylbenzenesulfonamide]	
	3000	5700	> 9100	> 9100	1000	> 9100	2300		Cc1cc(-c2nc(-c3cc(S(=O)(=O)N[C@H]4CC[C@H](N)CC4)ccc3C)cnc2N)ccn1 [Example 129.43, 3-(5-amino-6-(2-methylpyridin-4-yl)pyrazin-2-yl)-N-((1r,4r)-4-aminocyclohexyl)-4-methylbenzenesulfonamide]	
	190	> 9100	> 9100	> 9100	69	5000	430		Cc1cc(-c2nc(-c3cc(S(=O)(=O)NCC4(O)CCCCC4)ccc3C)cnc2N)ccn1 [Example 129.4, 3-(5-amino-6-(2-methylpyridin-4-yl)pyrazin-2-yl)-N-((1-hydroxycyclohexyl)methyl)-4-methylbenzenesulfonamide]	
	1500	> 9100	> 9100	> 9100	280	> 9100	7500		Cc1cc(-c2nc(-c3cc(S(=O)(=O)NC4CCN(C)CC4)ccc3C)cnc2N)ccn1 [Example 129.22, 3-(5-amino-6-(2-methylpyridin-4-yl)pyrazin-2-yl)-4-methyl-N-(1-methylpiperidin-4-yl)benzenesulfonamide]	
	700	> 9100	> 9100	> 9100	110	> 9100	1200		Cc1cc(-c2nc(-c3cc(S(=O)(=O)NCCN)ccc3C)cnc2N)ccn1 [Example 129.34, 3-(5-amino-6-(2-methylpyridin-4-yl)pyrazin-2-yl)-N-(2-aminoethyl)-4-methylbenzenesulfonamide]	
	550	> 9100	> 9100	6200	27	> 9100	940		Cc1cc(-c2nc(-c3cc(S(=O)(=O)NC4CCOCC4)ccc3C)cnc2N)ccn1 [Example 129.10, 3-(5-amino-6-(2-methylpyridin-4-yl)pyrazin-2-yl)-4-methyl-N-(tetrahydro-2H-pyran-4-yl)benzenesulfonamide]	
	100	460	> 10000	4000	13	7000	320		Cc1ccc(S(=O)(=O)NCC2(CO)CCC2)cc1-c1cnc(N)c(-n2cncn2)n1 [Example 127.49]	
	2300	> 9100	> 9100	> 9100	260	> 9100	2000		CNCCNS(=O)(=O)c1ccc(C)c(-c2cnc(N)c(-c3ccnc(C)c3)n2)c1 [Example 129.33, 3-(5-amino-6-(2-methylpyridin-4-yl)pyrazin-2-yl)-4-methyl-N-(2-(methylamino)ethyl)benzenesulfonamide]	
	540	3500	> 10000	6700	100	> 10000	2800		Cc1ccc(S(=O)(=O)NCC2(CO)CC2)cc1-c1cnc(N)c(-n2cncn2)n1 [Example 127.38]	
	9000	> 9100	> 9100	> 9100	760	> 9100	2100		Cc1cc(-c2nc(-c3cc(S(=O)(=O)NCCN4CCCC4)ccc3C)cnc2N)ccn1 [Example 129.27, 3-(5-amino-6-(2-methylpyridin-4-yl)pyrazin-2-yl)-4-methyl-N-(2-(pyrrolidin-1-yl)ethyl)benzenesulfonamide]	
	1900	2400	> 10000	> 10000	1300	> 10000	380		Cc1ccc(S(=O)(=O)NCC2CCN(C)C2)cc1-c1cnc(N)c(-n2cncn2)n1 (stereo not shown) [Example 127.18]	
	1600	2700	> 9100	> 9100	820	> 9100		4500	Cc1cc(-c2nc(-c3cc(S(=O)(=O)N[C@H]4CCC[C@@H]4N)ccc3C)cnc2N)ccn1 [Example 129.38, 3-(5-amino-6-(2-methylpyridin-4-yl)pyrazin-2-yl)-N-((1S,2S)-2-aminocyclopentyl)-4-methylbenzenesulfonamide]	
	1700	3500	> 10000	4200	270	> 10000	6600		Cc1ccc(S(=O)(=O)N[C@@H](C)CO)cc1-c1cnc(N)c(-n2cncn2)n1 [Example 127.41]	
	1300	> 9100	> 9100	8300	540	> 9100	2800		Cc1cc(-c2nc(-c3cc(S(=O)(=O)N4CC5(CNC5)C4)ccc3C)cnc2N)ccn1 [Example 129.37, 5-(5-(2,6-diazaspiro[3.3]heptan-2-ylsulfonyl)-2-methylphenyl)-3-(2-methylpyridin-4-yl)pyrazin-2-amine]	
	600	1900	> 10000	5300	65	5900	580		Cc1ccc(S(=O)(=O)NC2CCSC2=O)cc1-c1cnc(N)c(-n2cncn2)n1 (stereo not shown) [Example 127.51]	
	730	2200	> 10000	6100	120	3700	1400		Cc1ccc(S(=O)(=O)NC(C)C(C)C)cc1-c1cnc(N)c(-n2cncn2)n1 (stereo not shown) [Example 127.44]	
	1700	5900	> 10000	7100	800	> 10000	> 10000		Cc1ccc(S(=O)(=O)NC(C)CO)cc1-c1cnc(N)c(-n2cncn2)n1 (stereo not shown) [Example 127.42]	
